Consider twelve molecules from patent publication US4406908A, “Tetrazolylcoumarin derivatives and antiallergic compositions containing the same” (Kakenyaku Kako Co., Ltd., priority 1980, dated 1983).

The test system of series [1] is passive cutaneous anaphylaxis (PCA) mediated by homocytotropic antibodies (HTA). Nature of the series: antiallergic activity: passive cutaneous anaphylaxis (PCA) mediated by homocytotropic antibodies (HTA) in rats. In kind it is in vivo, rat (Wister). The conditions noted are these: Rattus norvegicus, given orally 30 minutes before antigen challenge, minimum dose that decreased statistically significantly the amount of leaked dye comparing with control, 72 hr. PCA, read-out: MED. On the procedure: With respect to the 3-(1H-tetrazol-5-yl)-coumarin derivatives obtained in Examples 1 to 12, there was tested antiallergic activity concerning passive cutaneous anaphylaxis (PCA) mediated by homocytotropic antibodies (HTA) in rats.
2,4-Dinitrophenyl-coupled ascaris extract (DNP-As) used as antigen, was prepared according to the methods of Strejan et al [cf. J. Immunol., Vol. 98, 893(1967)] and Eisen [cf. J. Amer. Chem. Soc., Vol. 75, 4593(1953)]. Antisera containing HTA were prepared in rats according to the method of Tada and Okumura [cf, J. Immunol., Vol. 106, 1002(1971)] as follows:
Wister rats weighing 180 to 200 g. were splenectomized and several days later immunized by injecting into all four footpads a total of 1 mg. of DNP-As mixed with 10^10 Bordetella pertussis. After 5 days, 0.5 mg. of DNP-As alone was injected subcutaneously into the back of rats. Eight days after the first immunization, blood was collected by aortic puncture under ether anaesthesea and antisera obtained by these procedures were pooled and stored at -80° C.
The titer of the pooled autiserum was determined in rats by the 72 hr. PCA which method was described in the following item (ii), i.e. the highest dilution of antiserum producing a diameter of approximately 5 mm. was usually 1:500.
Normal wister rats weighing 140 to 160 g. were sensitized passively by injection intradermal on the shaved back skin 0.05 ml. of the diluted antisera (1:30). After 72 hours, the animals were injected intravenously 1 ml. of physiological salt solution containing 2 mg. DNP-As and 2.5 mg. Evans' blue.
The present compounds to be tested were given orally 30 minutes before antigen challenge. The animals were exsanguinated 30 minutes after challenge with the antigens and the skins were exfoliated. The intensities of PCA were evaluated by measuring the amount of leaked dye. The amount of dye leaked as a result of PCA was extracted according to the method of Harada et al [cf. Jpn.

A further series is described as follows: acute toxicity in mice. The conditions noted are these: mouse, in vivo, po, orally, suspended in 10% gum arabic solution, 6 days observation, method of Litchfield-Wilcoxon. As to the method:
With respect to the 3-(1H-tetrazol-5-yl)-coumarin derivatives obtained in Examples 1 to 12, there was tested acute toxicity in mice.
After normal female Slc: ddy mice 4 weeks old were purchased and fed preliminarily in this lavoratory for a week, these mice weighing 25-27 g. were used in the test. The present compounds to be tested, were suspended in a 10% gum arabic solution and administered orally […]. body weight to mice. Each dose level was given to a group of ten animals and the survivors were kept under observation for 6 days. The numbers of dead animals were counted and the LD50 values in mg./kg. body weight were calculated by the method of Litchfield-Wilcoxon.

Structures are written as SMILES.

The LD50 is the dose expected to kill half of the subjects tested. With `CCOCCOc1cccc2cc(-c3nnn[nH]3)c(=O)oc12` [Ex. 3, 8-(3-Oxapentyloxy)-3-(1H-tetrazol-5-yl)coumarin], the minimal effective dose in series [1] came to 0.39 mg/kg. In the series “acute toxicity in mice”, this molecule came in with an LD50 at 144 h of 1500 mg/kg.
The corresponding values for `CCOCCCOc1cccc2cc(-c3nnn[nH]3)c(=O)oc12` [Ex. 8, 8-(4-Oxahexyloxy)-3-(1H-tetrazol-5-yl)coumarin] are 6.25 mg/kg and greater than 2000 mg/kg.
The corresponding values for `C=CCOCCOc1cccc2cc(-c3nnn[nH]3)c(=O)oc12` [Ex. 10, 8-(3-Oxa-5-hexenyloxy)-3-(1H-tetrazol-5-yl)-coumarin] are 6.25 mg/kg and 1500 to 2000 mg/kg.
`CCOCCCCOc1cccc2cc(-c3nnn[nH]3)c(=O)oc12` [Ex. 9, 8-(5-Oxaheptyloxy)-3-(1H-tetrazol-5-yl)coumarin]: the minimal effective dose in series [1] came to 0.39 mg/kg. Also, in the series “acute toxicity in mice”, the LD50 at 144 h was greater than 2000 mg/kg.
On the same counts, the results for `CC(C)OCCOc1cccc2cc(-c3nn[nH]n3)c(=O)oc12` [Ex. 5] are 6.25 mg/kg and 1500 mg/kg.
On the same counts, the results for `CC(C)COCCOc1cccc2cc(-c3nnn[nH]3)c(=O)oc12` [Ex. 7, 8-(5-Methyl-3-oxahexyloxy)-3-(1H-tetrazol-5-yl)coumarin] are 6.25 mg/kg and greater than 2000 mg/kg.
As for `O=c1oc2c(OCCCO)cccc2cc1-c1nnn[nH]1` [Ex. 1, 8-(3-Hydroxypropoxy)-3-(1H-tetrazol-5-yl)coumarin], the LD50 at 144 h in “acute toxicity in mice” was greater than 2000 mg/kg.
Regarding `O=c1oc2c(OCCOc3ccccc3)cccc2cc1-c1nnn[nH]1` [Ex. 12, 8-(2-Phenoxyethyloxy)-3-(1H-tetrazol-5-yl)-coumarin], the minimal effective dose in series [1] was found to be 1.56 mg/kg. Besides, the LD50 at 144 h in “acute toxicity in mice” was greater than 2000 mg/kg.
The corresponding values for `CCOCCOCCOc1cccc2cc(-c3nn[nH]n3)c(=O)oc12` [Ex. 11, 8-(3,6-Dioxaoctyloxy)-3-(1-H-tetrazol-5-yl)-coumarin] are 1.56 mg/kg and greater than 2000 mg/kg.
On the same counts, the results for `COCCOc1cccc2cc(-c3nnn[nH]3)c(=O)oc12` [Ex. 2, 8-(3-Oxabutoxy)-3-(1H-tetrazol-5-yl)coumarin] are 1.56 mg/kg and 1500 to 2000 mg/kg.
On the same counts, the results for `CCCCOCCOc1cccc2cc(-c3nnn[nH]3)c(=O)oc12` [Ex. 6, 8-(3-Oxaheptyloxy)-3(1H-tetrazol-5-yl)coumarin] are 6.25 mg/kg and greater than 2000 mg/kg.
`CCCOCCOc1cccc2cc(-c3nnn[nH]3)c(=O)oc12` [Ex. 4, 8-(3-Oxahexyloxy)-3-(1H-tetrazol-5-yl)coumarin]: the minimal effective dose in series [1] was 1.56 mg/kg. Moreover, in “acute toxicity in mice”, the LD50 at 144 h is 1500 to 2000 mg/kg.
